Experimental data published in patent US20140364500A1, “URSOLIC ACID SALTS FOR TREATING DIABETES AND OBESITY” (priority 2012, published 2014).

Tests used:
[1] = Solubility determination in water by HPLC assay; format: physicochemical; details: filtered, filtrate assayed by HPLC
Protocol: The average AUC of the three runs was used to determine the concentration.
Agilent 1100 HPLC; Eclipse XDB-C18 50×4.6 mm 1.8 micron column; Gradient—5 min 95% water (0.10% TFA) to 95% acetonitrile (0.07% TFA); 1.5 mL/min; UV Detection @ 210 nm.

[2] = Merck Index, 11th Edition, page 1556; cited from earlier work

- detection by HPLC assay in filtrate of water saturated with the substance [1]: not detected
SMILES: C[C@H]1[C@H](C)CC[C@]2(C(=O)O)CC[C@]3(C)C(=CC[C@@H]4[C@@]5(C)CC[C@H](O)C(C)(C)[C@@H]5CC[C@]43C)[C@H]12 [Ursolic acid]
- solubility in water (literature citation) [2]: insoluble in water
